Data on eleven compounds can be found in patent US6673938B1, “Substituted pyridine herbicides” (Syngenta Participations AG, priority 1998, dated 2004).

Molecules are shown by their SMILES. “And” between values parts separate entries of the source, which are not always exact repeats. Equal values may be shown once.

The test system of experiment [1] is Monocotyledonous and dicotyledonous test plants. As to the kind of experiment: Herbicidal action before emergence of the plants (pre-emergence action). The settings on record: evaluated after 3 weeks, nine-step scale; for Pre-emergence action, Abutilon / Pre-emergence action, Amaranthus / Pre-emergence action, Chenop. / Pre-emergence action, Digitaria / Pre-emergence action, Echino. / Pre-emergence action, Panicum: 250 g/ha; for pre-emergence action, Cyperus / pre-emergence action, Ipomoea / pre-emergence action, Setaria / pre-emergence action, Sinapis / pre-emergence action, Solanum / pre-emergence action, Stellaria: 2000 g/ha. The experiment is classed as in vivo. The essentials:
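Sprayed onto soil immediately after sowing as WP suspension or EC emulsion at 2 kg or 250 g a.i./ha (500 l water/ha). Greenhouse growth for 3 weeks, then scored on a nine-step scale (1 = complete damage, 9 = no effect).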

Experiment [2] has the same test system. As to the kind of experiment: Post-emergence herbicidal action. The experiment is classed as in vivo. The settings on record: evaluated after approximately 18 days; for Post-emergence action: Abutilon (score, nine-step scale) / Post-emergence action: Chenop. (score, nine-step scale) / Post-emergence action: Digitaria (score, nine-step scale) / Post-emergence action: Echino. (score, nine-step scale) / Post-emergence action: Ipopur. (score, nine-step scale) / Post-emergence action: Panicum (score, nine-step scale) / Post-emergence action: Xanth. (score, nine-step scale): 250 g/ha, sprayed at 4- to 6-leaf stage; for Post-emergence action, Ipomoea / Post-emergence action, Lolium / Post-emergence action, Setaria / Post-emergence action, Sinapis / Post-emergence action, Solanum / Post-emergence action, Stellaria: 2000 g/ha, sprayed in 4- to 6-leaf stage, nine-step scale. In short, it runs like this:
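Greenhouse plants sprayed at the 4- to 6-leaf stage with test substance as wettable-powder suspension or emulsion-concentrate emulsion, 2 kg or 250 g a.i./ha in 500 l water/ha. Scored after about 18 days on a nine-step scale (1=complete damage, 9=no effect).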

`COCc1nc(C(F)(F)F)ccc1C(=O)C1=C(O)C(C)(C)OCC1=O` [Compound A8-B552]: in experiment [1], the “Pre-emergence action, Abutilon” value is 1; the “Pre-emergence action, Amaranthus” value was 4; the “Pre-emergence action, Chenop.” value came out at 1; the “Pre-emergence action, Digitaria” value is reported as 3. Besides, in experiment [1], the “Pre-emergence action, Echino.” value is 4 and the “Pre-emergence action, Panicum” value amounted to 2. Moreover, in experiment [2], the “Post-emergence action: Abutilon (score, nine-step scale)” value is 2; the “Post-emergence action: Chenop. (score, nine-step scale)” value is reported as 2; the “Post-emergence action: Digitaria (score, nine-step scale)” value came out at 3; the “Post-emergence action: Echino. (score, nine-step scale)” value was found to be 3. In experiment [2], the “Post-emergence action: Ipopur. (score, nine-step scale)” value turned out to be 2; the “Post-emergence action: Panicum (score, nine-step scale)” value was 2; the “Post-emergence action: Xanth. (score, nine-step scale)” value turned out to be 2.

As for `Cc1nc(C(F)(F)F)ccc1C(=O)C1=C(O)C(C)(S(C)(=O)=O)CCC1=O` (stereo not shown) [Compound A2-B31], in experiment [1], the “pre-emergence action, Cyperus” value stood at 2; the “pre-emergence action, Ipomoea” value is recorded as 3; the “pre-emergence action, Setaria” value is on record as 4; the “pre-emergence action, Sinapis” value is given as 2. For the same compound, in experiment [1], the “pre-emergence action, Solanum” value is given as 1 and the “pre-emergence action, Stellaria” value is recorded as 2. In experiment [2], the “Post-emergence action, Ipomoea” value is 2; the “Post-emergence action, Lolium” value worked out at 2; the “Post-emergence action, Setaria” value was found to be 2; the “Post-emergence action, Sinapis” value is reported as 1. In experiment [2], the “Post-emergence action, Solanum” value was 2 and the “Post-emergence action, Stellaria” value was 2.

Take `Cc1nc(C(F)(F)F)ccc1C(=O)C1=C(O)CC2CCCC2C1=O` (stereo not shown) [Compound A2-D36]: in experiment [1], the “pre-emergence action, Cyperus” value is reported as 1; the “pre-emergence action, Ipomoea” value amounted to 2; the “pre-emergence action, Setaria” value is 2 and 1; the “pre-emergence action, Sinapis” value was found to be 2. In experiment [1], the “pre-emergence action, Stellaria” value is listed as 1. Besides, in experiment [2], the “Post-emergence action, Ipomoea” value was determined as 2; the “Post-emergence action, Lolium” value was 2 and 1; the “Post-emergence action, Setaria” value was 2 and 1; the “Post-emergence action, Sinapis” value was 1. In experiment [2], the “Post-emergence action, Solanum” value is 2 and 1; the “Post-emergence action, Stellaria” value is 2 and 1.

Take `COC(=O)C1(C)CCC(=O)C(C(=O)c2ccc(C(F)(F)F)nc2C)=C1O` (stereo not shown) [Compound A2-B34]: in experiment [1], the “pre-emergence action, Cyperus” value was found to be 1; the “pre-emergence action, Ipomoea” value was determined as 3; the “pre-emergence action, Setaria” value is 2; the “pre-emergence action, Sinapis” value was 2. Moreover, in experiment [1], the “pre-emergence action, Solanum” value worked out at 1 and the “pre-emergence action, Stellaria” value was 2. For the same compound, in experiment [2], the “Post-emergence action, Ipomoea” value is recorded as 1; the “Post-emergence action, Lolium” value was determined as 3; the “Post-emergence action, Setaria” value worked out at 2; the “Post-emergence action, Sinapis” value is 1. In experiment [2], the “Post-emergence action, Solanum” value is 1 and the “Post-emergence action, Stellaria” value amounted to 2.

Take `Cc1nc(C(F)(F)F)ccc1C(=O)C1=C(O)C(C)CC2(CC2)C1=O` (stereo not shown) [Compound A2-C2]: in experiment [1], the “pre-emergence action, Cyperus” value was 2; the “pre-emergence action, Ipomoea” value amounted to 3; the “pre-emergence action, Setaria” value is reported as 1; the “pre-emergence action, Sinapis” value was determined as 1. Moreover, in experiment [1], the “pre-emergence action, Solanum” value is given as 1 and the “pre-emergence action, Stellaria” value stood at 1. Also, in experiment [2], the “Post-emergence action, Ipomoea” value was 2; the “Post-emergence action, Lolium” value is listed as 1; the “Post-emergence action, Setaria” value stood at 1; the “Post-emergence action, Sinapis” value was 1. Moreover, in experiment [2], the “Post-emergence action, Solanum” value turned out to be 1 and the “Post-emergence action, Stellaria” value is 1.

With `Cc1nc(C(F)(F)F)ccc1C(=O)C1=C(O)CC(C)CC1=O` (stereo not shown) [Compound A2-B133], in experiment [1], the “pre-emergence action, Cyperus” value was 1; the “pre-emergence action, Ipomoea” value came out at 2; the “pre-emergence action, Setaria” value was 2; the “pre-emergence action, Sinapis” value is 2. For the same compound, in experiment [1], the “pre-emergence action, Solanum” value is recorded as 1 and the “pre-emergence action, Stellaria” value was 2. In experiment [2], the “Post-emergence action, Ipomoea” value is 1; the “Post-emergence action, Lolium” value amounted to 2; the “Post-emergence action, Setaria” value amounted to 2; the “Post-emergence action, Sinapis” value worked out at 1. In experiment [2], the “Post-emergence action, Solanum” value is listed as 2 and the “Post-emergence action, Stellaria” value was 2.

`COCc1nc(C(F)(F)F)ccc1C(=O)C1=C(O)C(C)(C)C(C)CC1=O` (stereo not shown) [Compound A8-B156]: in experiment [1], the “Pre-emergence action, Abutilon” value was determined as 3; the “Pre-emergence action, Amaranthus” value was determined as 4; the “Pre-emergence action, Chenop.” value was found to be 2; the “Pre-emergence action, Digitaria” value stood at 3. Moreover, in experiment [1], the “Pre-emergence action, Echino.” value worked out at 3 and the “Pre-emergence action, Panicum” value turned out to be 3. Besides, in experiment [2], the “Post-emergence action: Abutilon (score, nine-step scale)” value was 1; the “Post-emergence action: Chenop. (score, nine-step scale)” value is 1; the “Post-emergence action: Digitaria (score, nine-step scale)” value is on record as 3; the “Post-emergence action: Echino. (score, nine-step scale)” value worked out at 3. Further, in experiment [2], the “Post-emergence action: Ipopur. (score, nine-step scale)” value was 2; the “Post-emergence action: Panicum (score, nine-step scale)” value is listed as 2; the “Post-emergence action: Xanth. (score, nine-step scale)” value is recorded as 2.

On to `Cc1nc(C(F)(F)F)ccc1C(=O)C1=C(O)CC(C(C)C)CC1=O` (stereo not shown) [Compound A2-B1061], for which, in experiment [1], the “pre-emergence action, Cyperus” value was 3; the “pre-emergence action, Ipomoea” value came to 3; the “pre-emergence action, Setaria” value turned out to be 2; the “pre-emergence action, Sinapis” value is 2. Besides, in experiment [1], the “pre-emergence action, Solanum” value was 1 and the “pre-emergence action, Stellaria” value is listed as 2. In experiment [2], the “Post-emergence action, Ipomoea” value stood at 2; the “Post-emergence action, Lolium” value worked out at 2; the “Post-emergence action, Setaria” value came to 2; the “Post-emergence action, Sinapis” value is 1. Further, in experiment [2], the “Post-emergence action, Solanum” value is 2 and the “Post-emergence action, Stellaria” value is given as 2.

With `CCOC(=O)C1(C)CCC(=O)C(C(=O)c2ccc(C(F)(F)F)nc2C)=C1O` (stereo not shown) [Compound A2-B35], in experiment [1], the “pre-emergence action, Cyperus” value came to 2; the “pre-emergence action, Ipomoea” value was 4; the “pre-emergence action, Setaria” value is 2; the “pre-emergence action, Sinapis” value amounted to 2. Further, in experiment [1], the “pre-emergence action, Solanum” value is on record as 2 and the “pre-emergence action, Stellaria” value came to 2. In experiment [2], the “Post-emergence action, Ipomoea” value is 1; the “Post-emergence action, Lolium” value was determined as 3; the “Post-emergence action, Setaria” value came out at 2; the “Post-emergence action, Sinapis” value was 1. Further, in experiment [2], the “Post-emergence action, Solanum” value stood at 1 and the “Post-emergence action, Stellaria” value was determined as 2.

Take `Cc1nc(C(F)(F)F)ccc1C(=O)C1=C(O)C(C)(C)C(C)CC1=O` (stereo not shown) [Compound A2-B156]: in experiment [1], the “pre-emergence action, Cyperus” value is listed as 1; the “pre-emergence action, Ipomoea” value is on record as 2; the “pre-emergence action, Setaria” value worked out at 1; the “pre-emergence action, Sinapis” value came to 2. In addition, in experiment [1], the “pre-emergence action, Solanum” value is listed as 1 and the “pre-emergence action, Stellaria” value was found to be 2. In addition, in experiment [2], the “Post-emergence action, Ipomoea” value was 1; the “Post-emergence action, Lolium” value is listed as 2; the “Post-emergence action, Setaria” value was determined as 2; the “Post-emergence action, Sinapis” value is 1. Besides, in experiment [2], the “Post-emergence action, Solanum” value turned out to be 2 and the “Post-emergence action, Stellaria” value is on record as 2.

For `Cc1cc(C(=O)C2=C(O)C(C)(C)CCC2=O)c(C)nc1C(F)(F)F` [Compound A184-B24], in experiment [1], the “pre-emergence action, Cyperus” value was found to be 1; the “pre-emergence action, Ipomoea” value turned out to be 3; the “pre-emergence action, Setaria” value is reported as 2; the “pre-emergence action, Sinapis” value is recorded as 2. Besides, in experiment [1], the “pre-emergence action, Solanum” value came to 1 and the “pre-emergence action, Stellaria” value turned out to be 2. For the same compound, in experiment [2], the “Post-emergence action, Ipomoea” value is listed as 1; the “Post-emergence action, Lolium” value was 2; the “Post-emergence action, Setaria” value is on record as 2; the “Post-emergence action, Sinapis” value is 1. Further, in experiment [2], the “Post-emergence action, Solanum” value came to 2 and the “Post-emergence action, Stellaria” value is 2.
